Target: T1, RcsB (Klebsiella pneumoniae, UniProt W1DMM9)
T1 construct: expressed and purified earlier in the laboratory
Test: microscale thermophoresis (Monolith NT.[…])
Type: binding

T1 sequence (W1DMM9 entry or part of it): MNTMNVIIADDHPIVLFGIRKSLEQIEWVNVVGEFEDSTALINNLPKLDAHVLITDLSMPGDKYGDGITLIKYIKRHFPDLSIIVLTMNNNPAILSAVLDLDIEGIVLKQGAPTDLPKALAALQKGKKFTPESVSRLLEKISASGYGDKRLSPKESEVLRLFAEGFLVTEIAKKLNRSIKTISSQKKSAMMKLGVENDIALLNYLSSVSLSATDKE

**Q.** How did the Kd turn out when `C=CCc1ccc(O)c(OC)c1` [eugenol] was run?
**A.** The Kd was 53.4 µM.
